Reference: PubChem BioAssay (NCI)
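All cell lines were grown in 96-well plates and treated with compound for 48 hours. GI50 marks 50% less growth. The concentration for full growth arrest is given as TGI.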

Columns and labels:
Experiment in all cases: inhibition of tumour cell growth, NCI panel, 48 h
[1] = tested on: MOLT-4 leukemia
[2] = tested on: OVCAR-4 ovarian
[3] = tested on: K-562 leukemia
[4] = tested on: SK-MEL-5 melanoma
[5] = tested on: SF-295 CNS
[6] = tested on: NCI-H23 lung
[7] = tested on: TK-10 renal
[8] = tested on: LOX IMVI melanoma
[9] = tested on: SNB-75 CNS
[10] = tested on: SW-620 colon
[11] = tested on: NCI-H522 lung
[12] = tested on: SF-539 CNS
[13] = tested on: A498 renal
[14] = tested on: HT29 colon
[15] = tested on: SNB-19 CNS
[16] = tested on: HCT-15 colon
[17] = tested on: CCRF-CEM leukemia
[18] = tested on: HCT-116 colon
[19] = tested on: SN12C renal
[20] = tested on: HOP-62 NSCLC
[21] = tested on: U251 CNS
[22] = tested on: T-47D breast
[23] = tested on: OVCAR-5 ovarian
[24] = tested on: NCI-H226 lung
[25] = tested on: SK-OV-3 ovarian
[26] = tested on: HS 578T breast
[27] = tested on: M14 melanoma
[28] = tested on: SF-268 CNS
[29] = tested on: SR leukemia
[30] = tested on: SK-MEL-2 melanoma
[31] = tested on: DU-145 prostate
[32] = tested on: COLO 205 colon
[33] = tested on: MDA-MB-435
[34] = tested on: ACHN renal
[35] = tested on: PC-3 prostate
[36] = tested on: HCC-2998 colon
[37] = tested on: MDA-N
[38] = tested on: EKVX NSCLC
[39] = tested on: CAKI-1 renal
[40] = tested on: OVCAR-3 ovarian
[41] = tested on: HL-60(TB) leukemia
[42] = tested on: SK-MEL-28 melanoma
[43] = tested on: RXF 393 renal
[44] = tested on: A549 NSCLC
[45] = tested on: UO-31 renal
[46] = tested on: OVCAR-8 ovarian
[47] = tested on: MDA-MB-231 breast
[48] = tested on: NCI-H460 lung
[49] = tested on: NCI/ADR-RES ovarian
[50] = tested on: 786-0 renal
[51] = tested on: RPMI-8226 leukemia
[52] = tested on: KM12 colon
[53] = tested on: UACC-257 melanoma
[54] = tested on: BT-549 breast
[55] = tested on: UACC-62 melanoma
[56] = tested on: HOP-92 NSCLC
[57] = tested on: MCF7 breast
[58] = tested on: MALME-3M melanoma
[59] = tested on: IGROV1 ovarian

c1ccc2c(c1)Nc1ccccc1[P+]21c2ccccc2Nc2ccccc21
TGI [1]: 1.11 µM
TGI [2]: > 32.5 µM
TGI [3]: 1.75 µM
TGI [4]: 0.31 µM
TGI [5]: 5.16 µM
TGI [6]: 0.83 µM
TGI [7]: 5.93 µM
TGI [8]: 2.23 µM
TGI [9]: 0.332 µM
TGI [10]: 3.42 µM
TGI [11]: 0.728 µM
TGI [12]: 0.817 µM
TGI [13]: 2.93 µM
TGI [14]: 2.9 µM
TGI [15]: 1.09 µM
TGI [16]: 24.5 µM
TGI [17]: 0.85 µM
TGI [18]: 1.05 µM
TGI [19]: 0.631 µM
TGI [20]: 1.58 µM
TGI [21]: 1.4 µM
TGI [22]: 1.91 µM
TGI [23]: 2.04 µM
TGI [24]: 0.66 µM
TGI [25]: 0.869 µM
TGI [26]: 1.36 µM
TGI [27]: 2.23 µM
TGI [28]: 6.63 µM
TGI [29]: 1.4 µM
TGI [30]: 0.482 µM
TGI [31]: 3.46 µM
TGI [32]: 0.202 µM
TGI [33]: 1.27 µM
TGI [34]: 9.29 µM
TGI [35]: 0.609 µM
TGI [36]: 2.44 µM
TGI [37]: 1.11 µM
TGI [38]: 2.74 µM
TGI [39]: 11.2 µM
TGI [40]: 0.612 µM
TGI [41]: 0.485 µM
TGI [42]: 1.65 µM
TGI [43]: 0.891 µM
TGI [44]: 3.29 µM
TGI [45]: 23.3 µM
TGI [46]: 5.39 µM
TGI [47]: 0.588 µM
TGI [48]: 2.81 µM
TGI [49]: > 100 µM
TGI [50]: 2.87 µM

CC1(C)/C(=N\O)C2(C#N)CCC1C2 (stereo not given)
TGI [1]: > 100 µM
TGI [2]: > 100 µM
TGI [3]: > 100 µM
TGI [6]: > 100 µM
TGI [51]: > 100 µM
TGI [7]: > 100 µM
TGI [9]: > 100 µM
TGI [10]: > 100 µM
TGI [13]: > 100 µM
TGI [52]: > 100 µM
TGI [15]: > 100 µM
TGI [16]: > 100 µM
TGI [53]: > 100 µM
TGI [17]: > 100 µM
TGI [19]: > 100 µM
TGI [21]: > 100 µM
TGI [24]: > 100 µM
TGI [54]: > 100 µM
TGI [55]: > 100 µM
TGI [28]: > 100 µM
TGI [29]: > 100 µM
TGI [33]: > 100 µM
TGI [56]: > 100 µM
TGI [34]: > 100 µM
TGI [36]: > 100 µM
TGI [37]: > 100 µM
TGI [39]: > 100 µM
TGI [41]: > 100 µM
TGI [42]: > 100 µM
TGI [45]: > 100 µM
TGI [46]: > 100 µM
TGI [47]: > 100 µM
TGI [48]: > 100 µM
TGI [49]: > 100 µM

O=c1c2c3c(sc2n2c(-c4cc(-c5ccccc5)no4)nnc2n1Cc1ccccc1)CCCC3
GI50 [1]: 3.72 µM
TGI [1]: 32.7 µM
GI50 [2]: 19.2 µM
TGI [2]: > 100 µM
GI50 [3]: 7.01 µM
TGI [3]: > 68.1 µM
GI50 [4]: 9.77 µM
TGI [4]: 22.9 µM
GI50 [5]: 6.53 µM
TGI [5]: 31.7 µM
GI50 [6]: 36.6 µM
TGI [6]: > 100 µM
GI50 [51]: 4.23 µM
TGI [51]: > 48.8 µM
GI50 [7]: 21.5 µM
TGI [7]: > 82.8 µM
GI50 [8]: 7.76 µM
TGI [8]: > 62.4 µM
GI50 [9]: 11.2 µM
TGI [9]: > 100 µM
GI50 [10]: 31.4 µM
TGI [10]: > 100 µM
GI50 [11]: 3.4 µM
TGI [11]: 28.1 µM
GI50 [12]: 19.2 µM
TGI [12]: 72.2 µM
GI50 [13]: 36.5 µM
TGI [13]: > 100 µM
GI50 [52]: 15.8 µM
TGI [52]: 55.2 µM
GI50 [14]: 29.2 µM
TGI [14]: > 100 µM
GI50 [15]: 31.8 µM
TGI [15]: > 100 µM
GI50 [16]: 11.6 µM
TGI [16]: > 83.4 µM
GI50 [53]: 23.9 µM
TGI [53]: > 74 µM
GI50 [17]: 3.22 µM
TGI [17]: > 37.7 µM
GI50 [18]: 10.3 µM
TGI [18]: 24.5 µM
GI50 [57]: 16.3 µM
TGI [57]: > 76.3 µM
GI50 [19]: 22.7 µM
TGI [19]: > 100 µM
GI50 [20]: 14.8 µM
TGI [20]: 57 µM
GI50 [21]: 17.3 µM
TGI [21]: > 100 µM
GI50 [22]: 3.55 µM
TGI [22]: 22.1 µM
GI50 [23]: 91.2 µM
TGI [23]: > 100 µM
GI50 [58]: 32.1 µM
TGI [58]: 97.3 µM
GI50 [24]: 20 µM
TGI [24]: 58.3 µM
GI50 [25]: 38.4 µM
TGI [25]: > 100 µM
GI50 [54]: 13.7 µM
TGI [54]: 63.2 µM
GI50 [26]: 18.7 µM
TGI [26]: > 94.7 µM
GI50 [27]: 27.2 µM
TGI [27]: > 100 µM
GI50 [55]: 17.1 µM
TGI [55]: 44 µM
GI50 [28]: 15.6 µM
TGI [28]: 68.3 µM
GI50 [29]: 4.94 µM
TGI [29]: > 42 µM
GI50 [30]: 4 µM
TGI [30]: 23.5 µM
GI50 [31]: 19.6 µM
TGI [31]: > 93.3 µM
GI50 [32]: 1.23 µM
TGI [32]: > 40.7 µM
GI50 [33]: 24.1 µM
TGI [33]: > 91.9 µM
GI50 [56]: 6.66 µM
TGI [56]: > 100 µM
GI50 [34]: 9.32 µM
TGI [34]: > 100 µM
GI50 [59]: 8.22 µM
TGI [59]: 87.6 µM
GI50 [35]: 9.19 µM
TGI [35]: > 100 µM
GI50 [36]: 20.7 µM
TGI [36]: > 76.6 µM
GI50 [38]: 8.63 µM
TGI [38]: > 67.6 µM
GI50 [39]: 10.2 µM
TGI [39]: 61.5 µM
GI50 [40]: 8.61 µM
TGI [40]: 30.5 µM
GI50 [41]: 4.65 µM
TGI [41]: 29.9 µM
GI50 [42]: 22.9 µM
TGI [42]: 76 µM
GI50 [43]: 4.13 µM
TGI [43]: 26.7 µM
GI50 [44]: 10.5 µM
TGI [44]: > 86.5 µM
GI50 [45]: 27.1 µM
TGI [45]: > 100 µM
GI50 [46]: 21.4 µM
TGI [46]: > 100 µM
GI50 [47]: 4.94 µM
TGI [47]: 55.2 µM
GI50 [48]: 12.6 µM
TGI [48]: 36.8 µM
GI50 [49]: 30.2 µM
TGI [49]: > 100 µM
GI50 [50]: 20.5 µM
TGI [50]: 98.9 µM
